For eight compounds, hair growth and Ki results are on record in patent US20140148484A1, “PYRAZOLE COMPOUNDS FOR TREATING HAIRLOSS” (Boehringer Ingelheim International GmbH, priority 2012, published 2014).

The test system of the first assay is hair growth in mice.
Test: not given
The note with it: applied topically to the skin of wild-type mice; cited from earlier work.
`CCCCC[C@H](O)/C=C/[C@H]1C(=O)C[C@H](O)[C@@H]1C/C=C\CCCC(=O)O` [PGD2, prostaglandin D2]: the hair growth result is “inhibited hair growth”.

In another assay the test system is explanted human hair follicles.
Test: not given
To be noted: administration to explanted human hair follicles; cited from earlier work.
Take `CCCCC[C@H](O)/C=C/[C@H]1C(=O)C[C@H](O)[C@@H]1C/C=C\CCCC(=O)O` [PGD2, prostaglandin D2]: the hair growth result is on record as “inhibited hair growth”.

The next assay addresses T1, human CRTH2 receptor (Homo sapiens, UniProt Q9Y5Y4).
T1 construct: host or cells: CHO-K1 (CHO-K1-hCRTH2 cells); membranes prepared in house from the purchased cell line
T1 sequence (Q9Y5Y4 1-395): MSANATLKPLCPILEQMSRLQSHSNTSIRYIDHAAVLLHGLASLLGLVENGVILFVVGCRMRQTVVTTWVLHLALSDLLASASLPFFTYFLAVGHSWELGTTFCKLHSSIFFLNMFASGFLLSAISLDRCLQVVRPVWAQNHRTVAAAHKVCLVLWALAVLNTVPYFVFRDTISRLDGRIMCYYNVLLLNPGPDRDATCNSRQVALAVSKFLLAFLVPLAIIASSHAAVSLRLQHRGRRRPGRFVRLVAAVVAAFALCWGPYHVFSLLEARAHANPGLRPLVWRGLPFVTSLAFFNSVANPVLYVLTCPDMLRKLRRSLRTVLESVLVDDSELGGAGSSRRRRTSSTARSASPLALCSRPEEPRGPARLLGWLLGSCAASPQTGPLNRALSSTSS
The experiment in a line: Human CRTH2 receptor membrane radioligand binding assay (SPA, [3H]-PGD2). To be noted: displacement of [3H]-PGD2 (1 nM) from CHO-K1-hCRTH2 cell membranes, 3 h room temperature. The procedure, abridged: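 SPA binding using membranes from CHO-K1 cells expressing human CRTH2 (0.5–10 μg protein/well) with 1 nM [3H]-PGD2 in Tris pH 7.4 buffer with 0.1% BSA, 3 h at room temperature. Non-specific binding defined with 1 μM PGD2 or 10 μM CAY10471; inhibition calculated from specific binding.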
On the technique in general: Loss of bound radioactivity is the signal in a displacement assay; it reports binding, not function.
Usually Ki stands for the dissociation constant of the complex between target and ligand, obtained from inhibition or displacement. Low readings indicate higher affinity, high ones lower affinity. In turn, `O=C(O)Cc1c(-c2ccccc2)nn(Cc2ccc(NC(=O)c3ccc4ccccc4c3)cc2)c1-c1ccccc1` [Example 2.44] showed a Ki of 10.2 nM.
`Cc1nn(Cc2ccc(NC(=O)c3ccc4ccccc4c3)cc2)c(-c2ccccc2)c1CC(=O)O` [Example 2.8]: the affinity corresponds to a Ki of 1.3 nM.
Regarding `Cc1nn(Cc2ccc(NCc3ccc(C(F)(F)F)cc3)cc2)c(C)c1CC(=O)O` [Example 6.3], the Ki amounted to 261 nM.
In turn, `Cc1cc(NC(=O)c2ccc3ccccc3c2)ccc1Cn1nc(C)c(CC(=O)O)c1C` [Example 7.5] came in with a Ki of 0.3 nM.
The same measure, in the same setting: under `CCc1c(CC(=O)O)c(C2CC2)nn1Cc1ccc(NC(=O)c2ccc(C(F)(F)F)cc2)cc1` [Example 2.47] stands 0.1 nM; under `Cc1nn(Cc2ccc(NCc3ccc(Cl)cc3)cc2)c(C)c1CC(=O)O` [Example 6.1], 438 nM; under `Cc1nn(Cc2ccc(NC(=O)c3ccc4ccccc4c3)cc2Cl)c(C)c1CC(=O)O` [Example 7.13], 1.3 nM.
